{
  "source": "patent US9326988B2",
  "about": "“Treatment and/or prevention of parkinson's disease dementia with ceftriaxone” (CHUNG SHAN MEDICAL UNIVERSITY, priority 2012, dated 2016)",
  "tested_on": "rats with PDD",
  "experiment": "T-maze test (working memory) in MPTP-HCl-induced PDD rats",
  "assay_type": "in vivo, male Wistar rats",
  "description": "1-methyl-4-phenyl-1,2,3,6-tetrahydropyridine hydrochloride (MPTP-HCl) was used to induce PDD in the rats, and the therapeutic effect of ceftriaxone on PDD was evaluated via behavioral tests and histopathological assessment of the brain for the rats. The experiments of this example were conducted substantially according to the method as described in Ho Y. J. et al. (2011), Behav. Brain Res., 219:280-290.\nThe rats in the pathological control group, the preventive groups, and the treatment groups were anesthetized using Zoletil (Virbac, Carros, France; 20 mg/kg, intraperitoneal injection). Afterward, 0.5 M MPTP-HCl (in saline) was slowly infused bilaterally into the substantia nigra pars compacta (SNc) of the mesencephalon of each rat in the pathological control group, the preventive groups, and the treatment groups (0.21 mg/side) so as to induce the same to develop PDD.\n5 days before the MPTP-HCl injection, ceftriaxone (Sigma) was administered to the rats in the preventive groups 1,2 via […] day after the MPTP-HCl injection. After the MPTP-HCl injection, […] 2,3 via intraperitoneal injection respectively at a daily dose of 200 mg/kg, at a daily dose of 100 mg/kg, and at a daily dose of 200 mg/kg, and saline was administered to the rats in the pathological control group and the sham-operated group 1 via intraperitoneal injection at a daily dose of 1 mL/kg. […] The rats in the pathological control group, the treatment groups 1,2,3, and the sham-operated groups 1,2,3 were subjected to the once-a-day administration until the end of the 14th day after the MPTP-HCl injection.\nStarting on the 8th day after the MPTP-HCl injection, the rats in each group were subjected to the T-maze test as described in section C of this example. Starting on the 12th day after the MPTP-HCl injection, the rats in each group were subjected to the object recognition test as described in section D of this example. On the 15th day after the MPTP-HCl injection, the rats in the treatment group 1, the sham-operated group 1, and the pathological control group were subjected to the histopathological analysis as described in section E of this example.\nIn order to investigate the effect of ceftriaxone on the working memory of the rats with PDD, on the 8th day after the MPTP-HCl injection, 11 rats, 32 rats, and 36 rats were randomly selected respectively from the treatment group 1, the sham-operated group 1, and the pathological control group, and the aforesaid randomly selected rats and each of the rats in the rest of the groups were subjected to a T-maze test. The T-maze test lasted a total of three days, and was conducted substantially according to the following methods: • (1) One day before the start of the T-maze test, the rats are subjected to 23 hours of fasting. Furthermore, on each of three days for the training session, after all of trials were finished, the rats were fed for an hour. • (2) The training session—the 1st and 2nd days of the T-maze test: • The respective rat is subjected to a total of 9 trials. In each of the trials, one forced run and one choice run were sequentially conducted. The time interval between the forced run and the choice run was 30 seconds. The respective rat was placed at the start end 11 of the T-maze to begin either the forced run or the choice run. When the forced run was conducted, the sliding door 22 of one of the two choice arms 2 was closed, and a food serving as a reward was placed at the terminal end 21 of the other one of the two choice arms 2.",
  "data": [
    {"molecule": "CO/N=C(\\C(=O)N[C@@H]1C(=O)N2C(C(=O)O)=C(CSc3nc(=O)c(=O)[nH]n3C)CS[C@H]12)c1csc(N)n1", "note": "[ceftriaxone, Ceftriaxone]", "values": [
      {"measurement": "correct response rate compared to the pathological control group", "setting": "Example 1 preventive group 1: 100 mg/kg daily i.p. from 5 days before MPTP-HCl to 14th day after, determined 10th day (FIG. 3)", "result": "higher"},
      {"measurement": "correct response rate compared to the pathological control group", "setting": "Example 1 preventive group 2: 200 mg/kg daily i.p. from 5 days before MPTP-HCl to 14th day after, determined 10th day (FIG. 3)", "result": "higher"},
      {"measurement": "correct response rate compared to the pathological control group", "setting": "Example 1 treatment group 1: 200 mg/kg daily i.p. after MPTP-HCl injection to 14th day, determined 10th day, difference statistically significant (FIG. 3)", "result": "higher"},
      {"measurement": "correct response rate compared to the pathological control group", "setting": "Example 1 treatment group 2: 100 mg/kg daily i.p. starting 3rd day after MPTP-HCl to 14th day, determined 10th day, difference statistically significant (FIG. 3)", "result": "higher"},
      {"measurement": "correct response rate compared to the pathological control group", "setting": "Example 1 treatment group 3: 200 mg/kg daily i.p. starting 3rd day after MPTP-HCl to 14th day, determined 10th day, difference statistically significant (FIG. 3)", "result": "higher"},
      {"measurement": "correct response rate compared to the pathological control group", "setting": "Example 2 treatment group 1: 10 mg/kg daily i.p. after MPTP-HCl injection to 14th day, determined 10th day (FIG. 7)", "result": "significantly higher"},
      {"measurement": "correct response rate compared to the pathological control group", "setting": "Example 2 treatment group 2: 50 mg/kg daily i.p. after MPTP-HCl injection to 14th day, determined 10th day (FIG. 7)", "result": "significantly higher"}
    ]}
  ]
}
